Reference: patent US20210205195A1, “PRESERVED COMPOSITIONS” (Conopco, Inc., d/b/a UNILEVER, priority 2018, published 2021)

Key:
[1] = tested on: Enterobacter cloacae, Klebsiella sp; assay: Modified Ph. Eur. 5.1.3 microbial challenge test in hair conditioner, Pool 2 (Gram negative fermenters); type: cell-based
Experimental: (§1) Itaconic acid, lactic acid and citric acid were purchased from Sigma-Aldrich. Six samples of unpreserved conditioner were dosed with 0.5% and 1% (w/w) itaconic acid, citric acid and lactic acid separately. An unpreserved sample was kept as a control. Each dosed product was adjusted to pH 5 using 50% sodium hydroxide (Sigma-Aldrich). A modified challenge test to that of the European Pharmacopoeia (Ph. Eur. Or EP) 5.1.3 criteria was performed on a subsample of unpreserved and each dosed product. The microbial challenge pools were added to each sample container at a ratio of 1:100. The final concentration of inoculum in the product should be 5×10^6 CFU/G of test product. Each product is mixed with a sterile spatula to ensure a homogenous distribution of the inocula throughout the product. [table] Both the inoculum level and the level of microorganism within each sample was quantified using a Total Viable Count (TVC) pour plate method at 7, 14, 21 and 28 days. A 1:10 dilution was made with a subsample of each product, performed separately in Peptone (0.1%)/tween 80 (2%) neutralising agent. A 1:10 and 1:100 dilution of each subsample was performed and pour plates produced at each dilution using tryptone soya agar. Plates were incubated at 28° C. for 48 hours and then examined for growth. Visible colonies were counted with the aid of a Quebec Colony Counter and recorded for analysis against the challenge test criteria. During the removal of a subsample of product for TVC, a reinoculation is performed at 7 and 14 days, reintroducing 5×10^6 CFU/G of bacteria before mixing using a sterile spatula to homogenise the reinoculation. [table]

[2] = tested on: Pseudomonas aeruginosa, Burkholderia cepacia, Strenotrophomonas sp; assay: Modified Ph. Eur. 5.1.3 microbial challenge test in hair conditioner, Pool 1 (Gram negative non-fermenters); type: cell-based
Experimental: as §1

[3] = 0.5% (w/w) in conditioner, pH 5, Pool 2, 7 days
[4] = 0.5% (w/w) in conditioner, pH 5, Pool 2, 14 days
[5] = 0.5% (w/w) in conditioner, pH 5, Pool 2, 21 days
[6] = 0.5% (w/w) in conditioner, pH 5, Pool 2, 28 days
[7] = 1% (w/w) in conditioner, pH 5, Pool 2, 7 days
[8] = 1% (w/w) in conditioner, pH 5, Pool 2, 14 days
[9] = 1% (w/w) in conditioner, pH 5, Pool 2, 21 days
[10] = 1% (w/w) in conditioner, pH 5, Pool 2, 28 days
[11] = 0.5% (w/w) in conditioner, pH 5, Pool 1, 7 days
[12] = 0.5% (w/w) in conditioner, pH 5, Pool 1, 14 days
[13] = 0.5% (w/w) in conditioner, pH 5, Pool 1, 21 days
[14] = 0.5% (w/w) in conditioner, pH 5, Pool 1, 28 days
[15] = 1% (w/w) in conditioner, pH 5, Pool 1, 7 days
[16] = 1% (w/w) in conditioner, pH 5, Pool 1, 14 days
[17] = 1% (w/w) in conditioner, pH 5, Pool 1, 21 days
[18] = 1% (w/w) in conditioner, pH 5, Pool 1, 28 days

| Structure (SMILES) | Microbial Log reduction [1, 3] | Microbial Log reduction [1, 4] | Microbial Log reduction [1, 5] | Microbial Log reduction [1, 6] | Microbial Log reduction [1, 7] | Microbial Log reduction [1, 8] | Microbial Log reduction [1, 9] | Microbial Log reduction [1, 10] | Microbial Log reduction [2, 11] | Microbial Log reduction [2, 12] | Microbial Log reduction [2, 13] | Microbial Log reduction [2, 14] | Microbial Log reduction [2, 15] | Microbial Log reduction [2, 16] | Microbial Log reduction [2, 17] | Microbial Log reduction [2, 18] |
| --- | --- | --- | --- | --- | --- | --- | --- | --- | --- | --- | --- | --- | --- | --- | --- | --- |
| O=C(O)CC(O)(CC(=O)O)C(=O)O [Citric acid, citric acid] | 3.20 | 2.28 | <2.82 | 2.72 | 4.67 | 2.86 | <2.82 | 3.69 | >5.85 | >5.89 | >5.79 | >5.79 | >5.85 | >5.89 | >5.79 | >5.79 |
| C=C(CC(=O)O)C(=O)O [Itaconic acid] | >5.72 | >5.61 | >5.82 | >5.82 | >5.72 | >5.61 | >5.82 | >5.82 | >5.85 | >5.89 | >5.79 | >5.79 | >5.85 | >5.89 | >5.79 | >5.79 |
| CC(O)C(=O)O (stereo not drawn) [Lactic acid, lactic acid] | 3.73 | 3.70 | <2.82 | <2.82 | 3.69 | 3.58 | 4.02 | 4.62 | >5.85 | >5.89 | >5.79 | >5.79 | >5.85 | >5.89 | >5.79 | >5.79 |
